We go through four molecules from patent US20250032590A1, “PARATHYROID HORMONE COMPOUNDS IN THE TREATMENT OF HYPOPARATHYROIDISM” (AMOLYT PHARMA, priority 2023, published 2025).

For series [1], the system named is patients with HP. To be noted: cited from earlier work.
Series [2] deals with TPTX rats. Conditions: rat, in vivo; cited from earlier work.
For series [3], the system named is patients with HP. To be noted: cited from earlier work; for urinary calcium excretion: clinical studies; for control of calcium levels: patients with HP.
The next series has as its system hypoparathyroid mice. To be noted: single sc, AZP-3601 10 to 20 nmol/kg, PTH(1-34) at a higher dose; cited from earlier work.
The test system of the next series is PTX mice. In words: Serum calcium after single dosing in HP PTX mouse model (Example 1). The format is in vivo. Conditions: PTX mice, single dosing; AZP-3601 20, 40 or 80 μg/kg; PTH (1-34) 200 μg/kg. The text has this:
In FIG. 1, the black line indicates the impact of PTX in mice, resulting in serum calcium levels well below normal levels.

The test system of series [4] is TPTX rats. Put plainly: Distal femur BMD by qCT in TPTX rats after 14-day treatment at doses that normalize serum calcium (Example 6). It is filed as in vivo, rat. As for the experimental part:
To directly compare the effect of daily subcutaneous injection of AZP-3601 to daily subcutaneous injection and continuous infusion of PTH(1-34), dose levels for each regimen that normalized serum calcium levels in TPTX rats were utilized. These doses corresponded to 50 nmoles/kg/day (205 μg/kg/day) for PTH(1-34) injected daily, 3 nmoles/kg/day (12.3 μg/kg/day) for PTH(1-34) continuously infused, and 1 nmole/kg/day (4.2 μg/kg/day) for AZP-3601 injected daily. After 14 days of treatment, femurs were collected and examined for bone mineral density (BMD) by quantitative computed tomography.

Series [5] has as its system normal cynomolgus monkeys. In words: Blood calcium after single injection in normal cynomolgus monkeys (Example 5). Conditions: single dose 10 nmole/kg (AZP-3601 42.7 μg/kg, PTH (1-84) 95 μg/kg, PTH (1-34) 42 μg/kg), AZP-3601 also 10.7 μg/kg (2.5 nmole/kg). The format is in vivo, cynomolgus monkey. As for the experimental part: To further examine how the potent and sustained biological activity induced by AZP-3601 could translate into potential clinical benefit for […] patients, its activity was examined in normal cynomolgus monkeys, a species much closer to humans and the most relevant for first in human dose-selection. Single injections of AZP-3601 were administered to normal cynomolgus monkeys. […] The dissociation between pharmacokinetic profile and pharmacodynamic effect is due to the short circulating half-life of AZP-3601 as opposed to the prolonged signaling caused by AZP-3601's potent interaction with the R^0 conformation of the PTH1 receptor.
In a second study as illustrated in panel B of FIG. 5, monkeys were injected with a single dose of either natural PTH (1-84) at 95 μg/kg, natural PTH (1-34) at 42 μg/kg or AZP-3601 at 42.7 μg/kg, which were equal doses of 10 nmole/kg, adjusted for the molecular weight of the individual compounds. In addition, a lower dose of 10.7 μg AZP-3601/kg (2.5 nmole/kg) was also tested.

Series [6] deals with TPTX rats. Put plainly: Serum calcium and phosphate, 28-day daily sc dosing in HP TPTX rat model (Example 2). The format is in vivo. Conditions: once daily sc for 28 days. As for the experimental part:
Thyroid-parathyroidectomized, or TPTX, rats were treated with daily subcutaneous injection of AZP-3601 at doses ranging from 3.8 μg/kg/day to 30.7 μg/kg/day. Treatment was continued for 28 days. […] The increase in calcium accumulated over time (over the first 15 to 21 days), but became more constant thereafter, indicating the development of a steady-state effect (FIG. 2). Due to the cumulative effect, lower doses of AZP-3601 were required to eventually increase blood calcium levels into the normal range as compared to the dose required with a single injection.

The subject of series [7] is TPTX rats. Put plainly: BMD (DXA) and bone structure (micro-CT) in TPTX rats after repeated daily dosing (Example 7). It is filed as in vivo, rat. Conditions: once daily sc, AZP-3601 3.8 to 30.7 μg/kg/day, versus vehicle. As for the experimental part:
To examine the effect of repeated dosing with AZP-3601, TPTX rats were treated with daily subcutaneous injections of either vehicle or AZP-3601 with doses ranging from 3.8 to 30.7 μg/kg/day (0.9-7.2 nmole/kg/day). As additional controls, a separate group of TPTX rats received daily injections of natural PTH (1-84), and a group of normal (with intact thyroid and parathyroid glands, or sham) rats were injected with vehicle. […] Both whole femurs and lumbar spine were analyzed using a technique called dual-energy x-ray absorptionametry, or DXA, which measures BMD.

Read-outs that look alike come from different tables or passages of the source.

In the case of “TransCon™PTH: sustained-release, injectable prodrug formulation of native PTH (1-34), Ascendis Pharma A/S”, in the series with patients with HP [1] (Phase 3 trial, 6 months of treatment), the hypercalciuria after treatment entry is “a number of patients are still hypercalciuric”. Moreover, in the series with patients with HP [1] (human, in vivo), the “mean T-scores” value is reported as “decrease in mean T-scores” and the serum calcium levels result was “provides stable serum calcium levels”. In the series with patients with HP [1] (patients with HP), the “mean 24-hour urine calcium levels” value is on record as “decrease mean 24-hour urine calcium levels”. Besides, the pharmacokinetic profile entry in the series with TPTX rats [2] is given as “continuous, non-pulsatile, infusion-like pharmacokinetic profile”.
“Natpara™: recombinant natural human PTH ((rh)PTH(1-84)), approved adjunct to calcium and vitamin D in HP”: in the series with patients with HP [3], the urinary calcium excretion entry is listed as “failed to demonstrate reduction of urinary calcium excretion” and the “control of calcium levels” value is given as “does not control calcium levels for the entire day”. In the series on patients with HP [3] (listed as (rh)PTH(1-84)), the urinary calcium excretion result is “elevated urinary calcium excretion in many subjects” and the “control of calcium levels” value is recorded as “lack of 24-hour control of serum calcium”. Besides, in the series with patients with HP [3] (human, in vivo), the adverse effects result was “adverse effects such as hyper/hypocalcemia and vasoactive events”; the half-life result was “short half-life”.
Turning to “PTH(1-34) (SVSEIQLMHNLGKHLNSMERVEWLRKKLQDVHNF) [natural PTH (1-34)]”, in the series on hypoparathyroid mice, the “duration of decreased serum inorganic phosphorus” value was < 4 h and the “duration of increased serum calcium” value was < 8 h. The “effect on serum calcium” value in the series with PTX mice was “transient elevation in serum calcium”. The “femur BMD by quantitative computed tomography, continuous infusion” value with TPTX rats [4] (14 days, 3 nmoles/kg/day continuously infused) is “significant decrease in BMD”. For the same molecule, the “femur BMD by quantitative computed tomography, daily injection” value with TPTX rats [4] (14 days, PTH(1-34) 50 nmoles/kg/day, AZP-3601 1 nmole/kg/day) is recorded as “significant increase in BMD”. The “dose that normalized serum calcium levels, continuous infusion” value with TPTX rats [4] (continuously infused) worked out at 3 nmol/kg/day. The “dose that normalized serum calcium levels, daily subcutaneous injection” value in the series on TPTX rats [4] (injected daily) was 50 nmol/kg/day. Besides, the “effect on blood calcium, second study” value in series [5] is reported as “only modestly increased blood calcium”.

B1: PTH (1-84) (protein, UniProt P01270 32-115, looked up)
Parathyroid hormone: SVSEIQLMHNLGKHLNSMERVEWLRKKLQDVHNFVALGAPLAPRDAGSQRPRKKEDNVLVESHEKSLGEADKADVNVLTKAKSQ
modifications: Parathyroid hormone
notes: natural PTH (1-84), comparator in rats and monkeys
For B1, in the series with TPTX rats [6], the “effect on blood phosphate levels” value is recorded as “only marginal reductions in blood phosphate levels”. Also, the “effect on serum/blood calcium levels” value with TPTX rats [6] (AZP-3601 3.8 to 30.7 μg/kg/day) is on record as “no persistent increase in blood calcium levels”. Moreover, in the series on TPTX rats [7], the “BMD of whole femur and lumbar spine by DXA” value is “statistically significant increase in BMD”. Moreover, in series [5], the “effect on blood calcium, second study” value was “only modestly increased blood calcium”.
